Source: publication PMC9234961 (Journal of Medicinal Chemistry, 2022)
Where two headings read alike, the source gives them in different places.

Experiments:
kinases (468) [1] = target: kinases (468) (Homo sapiens, UniProt O14920); settings: IKK-beta (IKBKB); 1000 nM
kinases (468) [2] = target: kinases (468) (Homo sapiens, UniProt O76039); settings: CDKL5; 1000 nM
kinases (468) [3] = target: kinases (468) (Homo sapiens, UniProt O94768); settings: DRAK2 (STK17B); 1000 nM
kinases (468) [4] = target: kinases (468) (Homo sapiens, UniProt O95747); settings: OSR1 (OXSR1); 1000 nM
kinases (468) (Homo sapiens, UniProt O95747), sequence (O95747 whole entry): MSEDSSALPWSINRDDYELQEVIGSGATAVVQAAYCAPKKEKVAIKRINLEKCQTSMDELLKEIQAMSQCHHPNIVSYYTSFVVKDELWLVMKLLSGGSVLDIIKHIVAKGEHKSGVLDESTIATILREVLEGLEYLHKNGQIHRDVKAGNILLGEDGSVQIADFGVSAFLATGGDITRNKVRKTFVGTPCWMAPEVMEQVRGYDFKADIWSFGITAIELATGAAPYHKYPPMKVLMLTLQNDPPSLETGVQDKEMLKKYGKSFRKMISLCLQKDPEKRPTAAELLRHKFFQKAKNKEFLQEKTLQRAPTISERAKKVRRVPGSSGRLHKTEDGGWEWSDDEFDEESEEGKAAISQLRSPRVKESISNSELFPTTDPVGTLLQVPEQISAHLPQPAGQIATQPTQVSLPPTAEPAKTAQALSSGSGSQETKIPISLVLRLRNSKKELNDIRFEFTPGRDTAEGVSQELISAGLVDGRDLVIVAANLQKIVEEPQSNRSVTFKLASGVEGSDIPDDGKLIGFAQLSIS

kinases (468) [5] = target: kinases (468) (Homo sapiens, UniProt P00533, T790M); settings: EGFR(T790M); 1000 nM
kinases (468) [6] = target: kinases (468) (Homo sapiens, UniProt P04049); settings: RAF1; 1000 nM
kinases (468) [7] = target: kinases (468) (Homo sapiens, UniProt P08922); settings: kinase ROS1 (Entrez ROS1); compound concentration 1000 nM
kinases (468) [8] = target: kinases (468) (Homo sapiens, UniProt P0C1S8); settings: kinase WEE2 (Entrez WEE2); compound concentration 1000 nM
kinases (468) [9] = target: kinases (468) (Homo sapiens, UniProt P10721, D816V); settings: KIT(D816V); 1000 nM
kinases (468) [10] = target: kinases (468) (Homo sapiens, UniProt P10721, V559D/V654A); settings: KIT(V559D,V654A); 1000 nM
kinases (468) [11] = target: kinases (468) (Homo sapiens, UniProt P11309); settings: PIM1; 1000 nM
kinases (468) [12] = target: kinases (468) (Homo sapiens, UniProt P15735); settings: PHKG2; 1000 nM
kinases (468) [13] = target: kinases (468) (Homo sapiens, UniProt P23458); settings: 1000 nM
kinases (468) (Homo sapiens, UniProt P23458), sequence (P23458 whole entry): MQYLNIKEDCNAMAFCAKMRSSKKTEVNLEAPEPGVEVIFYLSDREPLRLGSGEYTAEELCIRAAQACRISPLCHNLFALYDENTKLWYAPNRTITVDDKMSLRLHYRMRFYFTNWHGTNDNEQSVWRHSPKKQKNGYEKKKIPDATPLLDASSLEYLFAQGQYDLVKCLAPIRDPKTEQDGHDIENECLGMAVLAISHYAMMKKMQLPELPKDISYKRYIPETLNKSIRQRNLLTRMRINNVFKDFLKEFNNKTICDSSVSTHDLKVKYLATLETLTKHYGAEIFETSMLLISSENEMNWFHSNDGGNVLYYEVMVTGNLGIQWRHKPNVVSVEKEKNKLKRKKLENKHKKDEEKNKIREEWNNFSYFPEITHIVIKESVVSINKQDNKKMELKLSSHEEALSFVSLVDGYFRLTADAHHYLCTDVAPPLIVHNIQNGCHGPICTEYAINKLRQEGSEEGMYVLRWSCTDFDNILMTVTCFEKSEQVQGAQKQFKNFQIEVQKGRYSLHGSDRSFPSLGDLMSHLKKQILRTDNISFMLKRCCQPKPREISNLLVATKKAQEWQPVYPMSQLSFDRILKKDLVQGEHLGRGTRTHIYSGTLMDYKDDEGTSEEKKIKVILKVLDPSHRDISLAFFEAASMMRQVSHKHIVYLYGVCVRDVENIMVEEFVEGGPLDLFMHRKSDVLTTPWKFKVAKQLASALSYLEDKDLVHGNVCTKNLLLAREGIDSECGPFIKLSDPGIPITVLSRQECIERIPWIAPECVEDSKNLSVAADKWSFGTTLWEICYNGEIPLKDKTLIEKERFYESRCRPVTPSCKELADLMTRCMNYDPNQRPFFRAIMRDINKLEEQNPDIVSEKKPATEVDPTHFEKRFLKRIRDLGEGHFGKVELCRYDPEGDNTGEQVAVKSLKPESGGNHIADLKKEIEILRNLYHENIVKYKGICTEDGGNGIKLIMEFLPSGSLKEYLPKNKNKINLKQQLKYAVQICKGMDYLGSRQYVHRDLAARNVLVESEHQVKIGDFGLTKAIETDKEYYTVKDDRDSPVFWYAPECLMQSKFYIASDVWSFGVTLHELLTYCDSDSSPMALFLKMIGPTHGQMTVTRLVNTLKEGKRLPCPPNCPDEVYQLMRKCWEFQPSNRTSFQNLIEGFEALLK

kinases (468) [14] = target: kinases (468) (Homo sapiens, UniProt P42336, E542K); settings: PIK3CA(E542K); 1000 nM
kinases (468) [15] = target: kinases (468) (Homo sapiens, UniProt P42336, I800L); settings: PIK3CA(I800L); 1000 nM
kinases (468) [16] = target: kinases (468) (Homo sapiens, UniProt P45985); settings: MEK4 (MAP2K4); 1000 nM
kinases (468) [17] = target: kinases (468) (Homo sapiens, UniProt P46734); settings: MEK3 (MAP2K3); 1000 nM
kinases (468) [18] = target: kinases (468) (Homo sapiens, UniProt P49336); settings: CDK8; 1000 nM
kinases (468) [19] = target: kinases (468) (Homo sapiens, UniProt P49760); settings: CLK2; 1000 nM
kinases (468) (Homo sapiens, UniProt P49760), sequence (P49760 whole entry): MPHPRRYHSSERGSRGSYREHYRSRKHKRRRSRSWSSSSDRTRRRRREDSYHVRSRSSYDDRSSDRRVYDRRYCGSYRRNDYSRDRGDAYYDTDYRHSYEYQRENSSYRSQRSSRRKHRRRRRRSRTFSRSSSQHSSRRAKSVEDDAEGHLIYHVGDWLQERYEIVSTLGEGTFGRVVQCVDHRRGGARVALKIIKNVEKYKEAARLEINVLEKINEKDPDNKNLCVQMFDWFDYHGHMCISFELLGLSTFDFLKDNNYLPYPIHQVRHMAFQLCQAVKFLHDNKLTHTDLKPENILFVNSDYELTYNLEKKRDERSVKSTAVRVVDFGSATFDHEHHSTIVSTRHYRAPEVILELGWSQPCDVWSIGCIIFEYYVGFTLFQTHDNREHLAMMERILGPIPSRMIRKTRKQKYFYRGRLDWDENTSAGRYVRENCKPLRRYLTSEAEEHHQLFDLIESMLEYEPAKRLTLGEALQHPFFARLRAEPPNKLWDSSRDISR

kinases (468) [20] = target: kinases (468) (Homo sapiens, UniProt P51813); settings: BMX; 1000 nM
kinases (468) [21] = target: kinases (468) (Homo sapiens, UniProt Q13470); settings: kinase TNK1 (Entrez TNK1); compound concentration 1000 nM
kinases (468) (Homo sapiens, UniProt Q13470), sequence (Q13470 whole entry): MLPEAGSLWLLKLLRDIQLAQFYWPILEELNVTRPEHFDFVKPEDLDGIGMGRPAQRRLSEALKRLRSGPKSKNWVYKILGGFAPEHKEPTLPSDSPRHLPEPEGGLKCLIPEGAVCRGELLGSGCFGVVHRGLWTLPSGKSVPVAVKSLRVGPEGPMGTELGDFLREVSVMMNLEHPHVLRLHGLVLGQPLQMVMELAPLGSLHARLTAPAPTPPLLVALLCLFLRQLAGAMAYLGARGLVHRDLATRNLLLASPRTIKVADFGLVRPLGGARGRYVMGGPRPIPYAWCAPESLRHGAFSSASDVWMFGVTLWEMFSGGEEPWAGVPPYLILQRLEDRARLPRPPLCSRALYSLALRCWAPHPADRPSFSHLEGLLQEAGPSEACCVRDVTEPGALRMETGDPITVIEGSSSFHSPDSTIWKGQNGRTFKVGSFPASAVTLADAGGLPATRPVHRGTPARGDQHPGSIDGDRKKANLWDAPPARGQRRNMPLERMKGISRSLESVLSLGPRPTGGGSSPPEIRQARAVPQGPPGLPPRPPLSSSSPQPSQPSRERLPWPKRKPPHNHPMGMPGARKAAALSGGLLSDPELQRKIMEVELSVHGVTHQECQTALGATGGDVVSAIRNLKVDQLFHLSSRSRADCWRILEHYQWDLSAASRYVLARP

kinases (468) [22] = target: kinases (468) (Homo sapiens, UniProt Q13557); settings: CAMK2D; 1000 nM
kinases (468) [23] = target: kinases (468) (Homo sapiens, UniProt Q13882); settings: BRK (PTK6); 1000 nM
kinases (468) [24] = target: kinases (468) (Homo sapiens, UniProt Q16584); settings: MLK3 (MAP3K11); 1000 nM
kinases (468) [25] = target: kinases (468) (Homo sapiens, UniProt Q2M2I8); settings: AAK1; 1000 nM
kinases (468) [26] = target: kinases (468) (Homo sapiens, UniProt Q6ZWH5); settings: NEK10; 1000 nM
kinases (468) [27] = target: kinases (468) (Homo sapiens, UniProt Q8IW41); settings: MAPKAPK5; 1000 nM
kinases (468) [28] = target: kinases (468) (Homo sapiens, UniProt Q8TDR2); settings: kinase STK35 (Entrez STK35); compound concentration 1000 nM
kinases (468) [29] = target: kinases (468) (Homo sapiens, UniProt Q9BX84); settings: kinase TRPM6 (Entrez TRPM6); compound concentration 1000 nM
kinases (468) (Homo sapiens, UniProt Q9BX84), sequence (Q9BX84 whole entry): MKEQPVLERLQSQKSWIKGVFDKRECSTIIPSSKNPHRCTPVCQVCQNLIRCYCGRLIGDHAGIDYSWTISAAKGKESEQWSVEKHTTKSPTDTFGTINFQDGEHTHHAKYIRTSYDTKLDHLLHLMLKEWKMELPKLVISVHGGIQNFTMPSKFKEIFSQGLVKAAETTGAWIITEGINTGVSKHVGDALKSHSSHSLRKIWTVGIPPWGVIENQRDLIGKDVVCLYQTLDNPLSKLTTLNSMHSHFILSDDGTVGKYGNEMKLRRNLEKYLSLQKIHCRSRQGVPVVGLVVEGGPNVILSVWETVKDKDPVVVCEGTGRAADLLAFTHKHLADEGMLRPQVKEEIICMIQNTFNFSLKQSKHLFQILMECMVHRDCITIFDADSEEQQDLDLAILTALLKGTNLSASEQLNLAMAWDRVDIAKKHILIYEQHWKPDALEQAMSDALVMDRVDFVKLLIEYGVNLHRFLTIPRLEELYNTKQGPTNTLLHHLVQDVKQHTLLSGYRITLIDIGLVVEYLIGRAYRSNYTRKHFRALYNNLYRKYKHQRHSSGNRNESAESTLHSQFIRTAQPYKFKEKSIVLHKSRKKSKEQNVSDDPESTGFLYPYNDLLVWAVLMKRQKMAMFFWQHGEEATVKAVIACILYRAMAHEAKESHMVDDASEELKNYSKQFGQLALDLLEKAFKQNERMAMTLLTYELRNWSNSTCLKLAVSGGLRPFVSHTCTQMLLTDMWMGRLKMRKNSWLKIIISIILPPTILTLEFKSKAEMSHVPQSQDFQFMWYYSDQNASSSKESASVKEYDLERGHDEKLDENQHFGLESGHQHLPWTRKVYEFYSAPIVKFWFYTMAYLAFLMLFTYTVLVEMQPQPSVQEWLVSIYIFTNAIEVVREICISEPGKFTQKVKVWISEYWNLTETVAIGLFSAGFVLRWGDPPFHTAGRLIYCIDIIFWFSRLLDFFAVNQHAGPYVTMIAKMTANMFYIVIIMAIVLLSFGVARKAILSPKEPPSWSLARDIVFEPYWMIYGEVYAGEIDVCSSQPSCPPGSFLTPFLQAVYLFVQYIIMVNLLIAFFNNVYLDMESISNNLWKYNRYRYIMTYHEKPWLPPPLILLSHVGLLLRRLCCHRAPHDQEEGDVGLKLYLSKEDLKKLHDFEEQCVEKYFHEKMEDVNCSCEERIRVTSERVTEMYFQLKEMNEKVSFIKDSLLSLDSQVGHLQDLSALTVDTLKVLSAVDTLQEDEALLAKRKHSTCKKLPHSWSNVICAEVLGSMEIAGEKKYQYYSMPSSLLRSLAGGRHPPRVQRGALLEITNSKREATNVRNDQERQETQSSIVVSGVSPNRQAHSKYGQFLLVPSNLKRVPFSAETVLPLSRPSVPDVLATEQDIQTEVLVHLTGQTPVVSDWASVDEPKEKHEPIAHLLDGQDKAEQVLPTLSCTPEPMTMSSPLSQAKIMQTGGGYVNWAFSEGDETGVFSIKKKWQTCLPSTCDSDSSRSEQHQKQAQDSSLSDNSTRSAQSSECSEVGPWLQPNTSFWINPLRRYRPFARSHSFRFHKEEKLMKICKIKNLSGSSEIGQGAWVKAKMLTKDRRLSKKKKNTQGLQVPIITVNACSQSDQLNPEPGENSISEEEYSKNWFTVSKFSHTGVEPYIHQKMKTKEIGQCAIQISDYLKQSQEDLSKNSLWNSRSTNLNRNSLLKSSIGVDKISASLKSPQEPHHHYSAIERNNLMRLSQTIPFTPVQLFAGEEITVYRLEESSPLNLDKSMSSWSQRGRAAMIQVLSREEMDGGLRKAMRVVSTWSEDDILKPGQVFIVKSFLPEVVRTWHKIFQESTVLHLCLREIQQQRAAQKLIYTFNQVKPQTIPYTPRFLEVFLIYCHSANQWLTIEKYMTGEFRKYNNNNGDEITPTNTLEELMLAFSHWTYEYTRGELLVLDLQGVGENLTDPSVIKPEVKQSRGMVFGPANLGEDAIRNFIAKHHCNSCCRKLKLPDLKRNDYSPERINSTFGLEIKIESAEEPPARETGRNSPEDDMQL

kinases (468) [30] = target: kinases (468) (Homo sapiens, UniProt Q9HC98); settings: NEK6; 1000 nM
kinases (468) [31] = target: kinases (468) (Homo sapiens, UniProt Q9NRM7); settings: LATS2; 1000 nM
kinases (468) [32] = target: kinases (468) (Homo sapiens, UniProt Q9NRP7); settings: kinase STK36 (Entrez STK36); compound concentration 1000 nM
kinases (468) [33] = target: kinases (468) (Homo sapiens, UniProt Q9P289); settings: MST4; 1000 nM
kinases (468) [34] = target: kinases (468) (Homo sapiens, UniProt Q9UM73, C1156Y); settings: ALK(C1156Y); 1000 nM

## C[C@H]1C[C@@H](O)CN(c2ncc(Cl)c(Nc3ccc4c(c3)c3c(c(=O)n4C)OCC(F)(F)[C@H](C4CC4)N3)n2)C1 [CCT373566_9A]
Kinases (468) [1]
  Percent Control: 91%
Kinases (468) [2]
  Percent Control: 96%
Kinases (468) [3]
  Percent Control: 98%
Kinases (468) [4]
  Percent Control: 100%
Kinases (468) [5]
  Percent Control: 100%
Kinases (468) [6]
  Percent Control: 92%
Kinases (468) [7]
  Percent Control: 100%
Kinases (468) [8]
  Percent Control: 93%
Kinases (468) [9]
  Percent Control: 100%
Kinases (468) [10]
  Percent Control: 98%
Kinases (468) [11]
  Percent Control: 100%
Kinases (468) [12]
  Percent Control: 100%
Kinases (468) [13]; JAK1(JH1domain-catalytic)
  Percent Control: 100%
Kinases (468) [13]; JAK1(JH2domain-pseudokinase)
  Percent Control: 90%
Kinases (468) [14]
  Percent Control: 83%
Kinases (468) [15]
  Percent Control: 82%
Kinases (468) [16]
  Percent Control: 90%
Kinases (468) [17]
  Percent Control: 100%
Kinases (468) [18]
  Percent Control: 100%
Kinases (468) [19]
  Percent Control: 68%
Kinases (468) [20]
  Percent Control: 100%
Kinases (468) [21]
  Percent Control: 92%
Kinases (468) [22]
  Percent Control: 88%
Kinases (468) [23]
  Percent Control: 100%
Kinases (468) [24]
  Percent Control: 100%
Kinases (468) [25]
  Percent Control: 93%
Kinases (468) [26]
  Percent Control: 99%
Kinases (468) [27]
  Percent Control: 100%
Kinases (468) [28]
  Percent Control: 99%
Kinases (468) [29]
  Percent Control: 95%
Kinases (468) [30]
  Percent Control: 100%
Kinases (468) [31]
  Percent Control: 96%
Kinases (468) [32]
  Percent Control: 91%
Kinases (468) [33]
  Percent Control: 100%
Kinases (468) [34]
  Percent Control: 95%
